Measurements reported in patent US20180022780A1, “STABILIZATION ADRENOMEDULLIN DERIVATIVES AND USE THEREOF” (priority 2014, published 2018).
Bridge positions count the residues as written; N and C are the ends. Square brackets hold non-standard residues; d marks the D form. Peptide text beside a SMILES is read from it. * marks the point of attachment. Palmitoyl = CCCCCCCCCCCCCCCC(=O)*; NMeK = CN[C@@H](CCCCN)C(=O)O; Dab = NCC[C@H](N)C(=O)O; Dap = NC[C@H](N)C(=O)O

Target: T1, CLR fused to EYFP and RAMP2 fused to ECFP (Homo sapiens, UniProt O60895+Q16602)
T1 construct: EYFP; ECFP; expressed in transfected cells; host or cells: HEK-293 cells, transient co-transfection
T1 sequence (Q16602 23-461): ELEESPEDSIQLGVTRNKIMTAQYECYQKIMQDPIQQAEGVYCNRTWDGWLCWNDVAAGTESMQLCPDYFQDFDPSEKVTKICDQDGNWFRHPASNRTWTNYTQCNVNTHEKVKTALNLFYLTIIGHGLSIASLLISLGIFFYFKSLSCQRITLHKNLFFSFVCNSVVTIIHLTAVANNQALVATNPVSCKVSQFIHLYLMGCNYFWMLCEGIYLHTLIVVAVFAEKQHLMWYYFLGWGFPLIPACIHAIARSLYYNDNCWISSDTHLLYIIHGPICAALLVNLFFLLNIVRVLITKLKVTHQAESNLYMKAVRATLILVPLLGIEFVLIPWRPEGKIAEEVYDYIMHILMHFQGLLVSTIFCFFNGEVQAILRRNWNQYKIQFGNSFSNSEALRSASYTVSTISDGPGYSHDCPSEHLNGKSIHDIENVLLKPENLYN
T1 sequence (O60895 43-175): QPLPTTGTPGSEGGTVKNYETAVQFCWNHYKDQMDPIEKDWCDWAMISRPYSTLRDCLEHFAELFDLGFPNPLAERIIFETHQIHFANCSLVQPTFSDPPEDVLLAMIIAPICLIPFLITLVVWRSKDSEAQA
Test: cAMP assay (CRE luciferase reporter, HEK-293 cells transiently co-transfected with CLR and RAMP2)
Type: cell-based
Conditions: Table 2, cAMP assay; HEK-293, CLR/RAMP2, CRE luciferase, 3 h stimulation, normalized to [G^14]ADM(14-52)
Description: HEK-293 cells (human embryonic kidney cells) were cultured in Ham's F-12/DMEM (1/1; v/v) containing 15% FCS under humidified atmosphere at 37° C. and 5% CO2 in 75 cm^2 cell culture flasks.
Cells were cultured in 75 cm^2 flasks to 70-80% confluency. 45 μl Metafectene® Pro was diluted in 900 μl Ham's F-12/DMEM (1/1; v/v) and incubated for 20 min at room temperature. 9000 ng plasmid containing DNA of CLR fused to EYFP and 3000 ng plasmid containing DNA of RAMP2 fused to ECFP were dissolved in 900 μl Ham's F-12/DMEM (1/1; v/v). The plasmid solution was mixed with the Metafectene® Pro solution and incubated for 25 min at room temperature. Medium was removed from the cells and replaced by 6 ml Ham's F-12/DMEM (1/1; v/v) containing 15% FCS. After addition of transfection solution the cells were incubated for 3 h under humidified atmosphere at 37° C. and 5% CO2.
For the second transfection 45 μl Metafectene® Pro was diluted in 900 μl Ham's F-12/DMEM (1/1; v/v) and incubated for 20 min at room temperature. 12000 ng of pGL4.29[luc2P/CRE/Hygro] plasmid containing DNA for the luciferase reporter gene luc2P (with CRE promotor region) were dissolved in 900 μl Ham's F-12/DMEM (1/1; v/v). The plasmid solution was mixed with the Metafectene® Pro solution and incubated for 25 min at room temperature. Medium was removed from the cells and replaced by 6 ml Ham's F-12/DMEM (1/1; v/v) containing 15% FCS. After addition of transfection solution the cells were incubated under humidified atmosphere at 37° C. and 5% CO2 over night.
For the coating of 96-well-plates 50 μl of a Poly-D-Lysine solution (1 ml stock solution of Poly-D-Lysin-hydrobromid/10 ml DPBS) were pipetted in each well and incubated for 40 min. After removal of the Poly-D-Lysine each well was washed with 50 μl DPBS. Transiently transfected cells were detached from the cell culture flask by removal of the medium, twofold washing with 5 m1 DPBS and resuspending in 13 ml Ham's F-12/DMEM (1/1; v/v) containing 15% FCS. 90000 to 120000 cells in 150 μl Ham's F-12/DMEM (1/1; v/v) containing 15% FCS were seeded per well and the plates were incubated under humidified atmosphere at 37° C. and 5% CO2 over night.
For each ligand a serial dilution giving eight different concentrations was prepared using Ham's F-12/DMEM (1/1; v/v). Before stimulation the medium on the cells was replaced by 100 μl Ham's F-12/DMEM (1/1; v/v) and the plates were incubated for 1 h under humidified atmosphere at 37° C. and 5% CO2. For stimulation the medium was removed again and the cells were incubated for 3 h in 80 μl of ligand-solution under humidified atmosphere at 37° C. and 5% CO2. In addition 80 μl of a 5 μM forskolin solution (in Ham's F-12/DMEM (1/1; v/v)) was used as a positive control and 80 μl of Ham's F-12/DMEM (1/1; v/v) as a negative control. Each concentration and the controls were tested as triplicates.
After 3 h of stimulation, the solutions were removed and the cells were washed with 50 μl of Ham's F-12/DMEM (1/1; v/v) per well. After 10 min incubation in 30 μl of Ham's F-12/DMEM (1/1; v/v) at room temperature, 30 μl of luciferase-solution (ONE-Glo™ Luciferase Assay System) was added and the luminescence was directly measured using an Infinite M200 (Tecan).
Data analysis of the luminescence measurement was carried out with GraphPad Prism 5. Therefore the measured luminescence values of each plate were first corrected on the base of the respective average of forskolin stimulation. Afterwards they were normalized to [G^14]ADM(14-52) which was used as standard peptide in every assay. After correction and normalization data was analysed using non-linear regression giving dose-response curves for each tested ligand.

EC50	SMILES
84 nM	CC[C@H](C)[C@H](NC(=O)[C@H](CCC(N)=O)NC(=O)[C@H](Cc1c[nH]cn1)NC(=O)[C@H](C)NC(=O)[C@H](CC(C)C)NC(=O)[C@H](CCCCN)NC(=O)[C@H](CCC(N)=O)NC(=O)[C@@H](NC(=O)[C@@H](NC(=O)[C@@H]1CCC(=O)NCC[C@H](NC(=O)CNC(=O)CN)C(=O)N[C@@H](CCCNC(=N)N)C(=O)N[C@@H](Cc2ccccc2)C(=O)NCC(=O)N[C@@H]([C@@H](C)O)C(=O)N1)[C@@H](C)O)C(C)C)C(=O)N[C@@H](Cc1ccc(O)cc1)C(=O)N[C@@H](CCC(N)=O)C(=O)N[C@@H](Cc1ccccc1)C(=O)N[C@H](C(=O)N[C@@H](CC(=O)O)C(=O)N[C@@H](CCCCN)C(=O)N[C@@H](CC(=O)O)C(=O)N[C@@H](CCCCN)C(=O)N[C@@H](CC(=O)O)C(=O)N[C@@H](CC(N)=O)C(=O)N[C@H](C(=O)N[C@@H](C)C(=O)N1CCC[C@H]1C(=O)N[C@@H](CCCNC(=N)N)C(=O)N[C@@H](CO)C(=O)N[C@@H](CCCCN)C(=O)N[C@H](C(=O)N[C@@H](CO)C(=O)N1CCC[C@H]1C(=O)N[C@@H](CCC(N)=O)C(=O)NCC(=O)N[C@@H](Cc1ccc(O)cc1)C(N)=O)[C@@H](C)CC)C(C)C)[C@@H](C)O [Example 11, ((2S,5S,11S,14S,21S)-21-(2-(2-aminoacetamido)acetamido)-5-benzyl-2-(3-guanidinopropyl)-11-((R)-1-hydroxyethyl)-3,6,9,12,17,22-hexaoxo-1,4,7,10,13,18-hexaazacyclodocosane-14-carbonyl)-L-threonyl-ADM(22-52)] (H-GG[Dab]RFGTETVQKLAHQIYQFTDKDKDNVAPRSKISPQGY-NH2; lactam 3-8)
3.4 nM	CCCCCCCCCCCCCCCC(=O)NCCCC[C@H](N)C(=O)NCC(=O)N[C@H]1CNC(=O)CC[C@@H](C(=O)N[C@H](C(=O)N[C@H](C(=O)N[C@@H](CCC(N)=O)C(=O)N[C@@H](CCCCN)C(=O)N[C@@H](CC(C)C)C(=O)N[C@@H](C)C(=O)N[C@@H](Cc2c[nH]cn2)C(=O)N[C@@H](CCC(N)=O)C(=O)N[C@H](C(=O)N[C@@H](Cc2ccc(O)cc2)C(=O)N[C@@H](CCC(N)=O)C(=O)N[C@@H](Cc2ccccc2)C(=O)N[C@H](C(=O)N[C@@H](CC(=O)O)C(=O)N[C@@H](CCCCN)C(=O)N[C@@H](CC(=O)O)C(=O)N[C@@H](CCCCN)C(=O)N[C@@H](CC(=O)O)C(=O)N[C@@H](CC(N)=O)C(=O)N[C@H](C(=O)N[C@@H](C)C(=O)N2CCC[C@H]2C(=O)N[C@@H](CCCNC(=N)N)C(=O)N[C@@H](CO)C(=O)N(C)[C@@H](CCCCN)C(=O)N[C@H](C(=O)N[C@@H](CO)C(=O)N2CCC[C@H]2C(=O)N[C@@H](CCC(N)=O)C(=O)NCC(=O)N[C@@H](Cc2ccc(O)cc2)C(N)=O)[C@@H](C)CC)C(C)C)[C@@H](C)O)[C@@H](C)CC)C(C)C)[C@@H](C)O)NC(=O)[C@H]([C@@H](C)O)NC(=O)CNC(=O)[C@H](Cc2ccccc2)NC(=O)[C@H](CCCNC(=N)N)NC1=O [Example 27, ((3S,9S,12S,15S,21S)-15-(2-((S)-2-amino-6-palmitamidohexanamido)acetamido)-9-benzyl-12-(3-guanidinopropyl)-3-((R)-1-hydroxyethyl)-2,5,8,11,14,18-hexaoxo-1,4,7,10,13,17-hexaazacyclohenicosane-21-carbonyl)-L-threonyl-[N-Me-K^46]ADM(22-52)] (H-K(Palmitoyl)G[Dap]RFGTETVQKLAHQIYQFTDKDKDNVAPRS[NMeK]ISPQGY-NH2; lactam 3-8)
2 nM	CCCCCCCCCCCCCCCC(=O)NCCCC[C@H](N)C(=O)NCC(=O)N[C@H]1CNC(=O)CC[C@@H](C(=O)N[C@H](C(=O)N[C@H](C(=O)N[C@@H](CCC(N)=O)C(=O)N[C@@H](CCCCN)C(=O)N[C@@H](CC(C)C)C(=O)N[C@@H](C)C(=O)N[C@@H](Cc2c[nH]cn2)C(=O)N[C@@H](CCC(N)=O)C(=O)N[C@H](C(=O)N[C@@H](Cc2ccc(O)cc2)C(=O)N[C@@H](CCC(N)=O)C(=O)N[C@@H](Cc2ccccc2)C(=O)N[C@H](C(=O)N[C@@H](CC(=O)O)C(=O)N[C@@H](CCCCN)C(=O)N[C@@H](CC(=O)O)C(=O)N[C@@H](CCCCN)C(=O)N[C@@H](CC(=O)O)C(=O)N[C@@H](CC(N)=O)C(=O)N[C@H](C(=O)N[C@@H](C)C(=O)N2CCC[C@H]2C(=O)N[C@@H](CCCNC(=N)N)C(=O)N[C@@H](CO)C(=O)N[C@@H](CCCCN)C(=O)N[C@H](C(=O)N[C@@H](CO)C(=O)N2CCC[C@H]2C(=O)N[C@@H](CCC(N)=O)C(=O)NCC(=O)N[C@@H](Cc2ccc(O)cc2)C(N)=O)[C@@H](C)CC)C(C)C)[C@@H](C)O)[C@@H](C)CC)C(C)C)[C@@H](C)O)NC(=O)[C@H]([C@@H](C)O)NC(=O)CNC(=O)[C@H](Cc2ccccc2)NC(=O)[C@H](CCCNC(=N)N)NC1=O [Example 18, ((3S,9S,12S,15S,21S)-15-(2-((S)-2-amino-6-palmitamidohexanamido)acetamido)-9-benzyl-12-(3-guanidinopropyl)-3-((R)-1-hydroxyethyl)-2,5,8,11,14,18-hexaoxo-1,4,7,10,13,17-hexaazacyclohenicosane-21-carbonyl)-L-threonyl-ADM(22-52)] (H-K(Palmitoyl)G[Dap]RFGTETVQKLAHQIYQFTDKDKDNVAPRSKISPQGY-NH2; lactam 3-8)
2.9 nM	CC[C@H](C)[C@H](NC(=O)[C@H](CCC(N)=O)NC(=O)[C@H](Cc1c[nH]cn1)NC(=O)[C@H](C)NC(=O)[C@H](CC(C)C)NC(=O)[C@H](CCCCN)NC(=O)[C@H](CCC(N)=O)NC(=O)[C@@H](NC(=O)[C@@H](NC(=O)[C@@H]1CCC(=O)NC[C@H](NC(=O)CNC(=O)CN)C(=O)N[C@@H](CCCNC(=N)N)C(=O)N[C@@H](Cc2ccccc2)C(=O)NCC(=O)N[C@@H]([C@@H](C)O)C(=O)N1)[C@@H](C)O)C(C)C)C(=O)N[C@@H](Cc1ccc(O)cc1)C(=O)N[C@@H](CCC(N)=O)C(=O)N[C@@H](Cc1ccccc1)C(=O)N[C@H](C(=O)N[C@@H](CC(=O)O)C(=O)N[C@@H](CCCCN)C(=O)N[C@@H](CC(=O)O)C(=O)N[C@@H](CCCCN)C(=O)N[C@@H](CC(=O)O)C(=O)N[C@@H](CC(N)=O)C(=O)N[C@H](C(=O)N[C@@H](C)C(=O)N1CCC[C@H]1C(=O)N[C@@H](CCCNC(=N)N)C(=O)N[C@@H](CO)C(=O)N[C@@H](CCCCN)C(=O)N[C@H](C(=O)N[C@@H](CO)C(=O)N1CCC[C@H]1C(=O)N[C@@H](CCC(N)=O)C(=O)NCC(=O)N[C@@H](Cc1ccc(O)cc1)C(N)=O)[C@@H](C)CC)C(C)C)[C@@H](C)O [Example 7, ((3S,9S,12S,15S,21S)-15-(2-(2-aminoacetamido)acetamido)-9-benzyl-12-(3-guanidinopropyl)-3-((R)-1-hydroxyethyl)-2,5,8,11,14,18-hexaoxo-1,4,7,10,13,17-hexaazacyclohenicosane-21-carbonyl)-L-threonyl-ADM(22-52)] (H-GG[Dap]RFGTETVQKLAHQIYQFTDKDKDNVAPRSKISPQGY-NH2; lactam 3-8)
